Results reported in US8119643B2, “Benzoimidazolyl-pyrazine compounds for inflammation and immune-related uses” (Synta Pharmaceuticals Corp., priority 2006, dated 2012).

The compounds below were run on IL-2 production (assay: Inhibition of IL-2 production in PHA-activated Jurkat cells (ELISA)). Conditions: Homo sapiens, PHA 2.5 μg/mL, 20 hours, IL-2 ELISA.
Format: cell-based
Procedure: Jurkat cells were placed in a 96 well plate (0.5 million cells per well in 1% FBS medium) then a test compound of this invention was added at different concentrations. After 10 minutes, the cells were activated with PHA (final concentration 2.5 μg/mL) and incubated for 20 hours at 37° C. under CO2. The final volume was 200 μL. Following incubation, the cells were centrifuged and the supernatants were collected and stored at −70° C. prior to assaying for IL-2 production. A commercial ELISA kit (IL-2 Eli-pair, Diaclone Research, Besancon, France) was used to detect production of IL-2, from which dose response curves were obtained. The IC50 value was calculated as the concentration at which 50% of maximum IL-2 production after stimulation was inhibited versus a non-stimulation control.

CCOc1ccccc1C(=O)Nc1cnc(-n2c(C(F)(F)F)nc3cc(OC)ccc32)cn1 [Compound 123, 2-Ethoxy-N-[5-(5-methoxy-2-trifluoromethyl-benzoimidazol-1-yl)-pyrazin-2-yl]-benzamide] and COc1ccc2c(c1)nc(C(F)(F)F)n2-c1cnc(NC(=O)c2ccccc2OC)cn1 [Compound 111, 2-Methoxy-N-[5-(5-methoxy-2-trifluoromethyl-benzoimidazol-1-yl)-pyrazin-2-yl]-benzamide] cannot be ordered by IC50: greater than 1000 nM for the first, greater than 1000 nM for the second.

COc1ccc2c(c1)nc(C(F)(F)F)n2-c1cnc(NC(=O)c2cc(C)ccc2C)cn1 [Compound 122, N-[5-(5-Methoxy-2-trifluoromethyl-benzoimidazol-1-yl)-pyrazin-2-yl]-2,5-dimethyl-benzamide] and COc1ccc2c(c1)nc(C(F)(F)F)n2-c1cnc(NC(=O)c2ccc(C)cc2C)cn1 [Compound 94, N-[5-(5-Methoxy-2-trifluoromethyl-benzoimidazol-1-yl)-pyrazin-2-yl]-2,4-dimethyl-benzamide] are within 1.5-fold of each other in IC50: 73 nM for the first, 78 nM for the second.

Compared with COc1ccc2c(c1)nc(C(F)(F)F)n2-c1cnc(NC(=O)c2ccccc2F)cn1 [Compound 5, 2-Fluoro-N-[5-(5-methoxy-2-trifluoromethyl-benzoimidazol-1-yl)-pyrazin-2-yl]-benzamide], COc1ccc2c(c1)nc(C(F)(F)F)n2-c1cnc(NC(=O)c2ccccc2Cl)cn1 [Compound 99, 2-Chloro-N-[5-(5-methoxy-2-trifluoromethyl-benzoimidazol-1-yl)-pyrazin-2-yl]-benzamide] is 2.6-fold higher in IC50: 20 nM for the first, 52 nM for the second.

First: COc1ccc2c(c1)nc(C(F)(F)F)n2-c1cnc(NC(=O)c2cccc([N+](=O)[O-])c2)cn1 [Compound 98, N-[5-(5-Methoxy-2-trifluoromethyl-benzoimidazol-1-yl)-pyrazin-2-yl]-3-nitro-benzamide]
Second: COc1ccc2c(c1)nc(C(F)(F)F)n2-c1cnc(NC(=O)c2cccc(C)c2)cn1 [Compound 116, N-[5-(5-Methoxy-2-trifluoromethyl-benzoimidazol-1-yl)-pyrazin-2-yl]-3-methyl-benzamide]
The IC50 of the first is 1.6-fold lower: 104 nM for the first, 170 nM for the second. The first is the more potent here.

Going from COc1ccc(C(=O)Nc2cnc(-n3c(C(F)(F)F)nc4cc(OC)ccc43)cn2)cc1 [Compound 120, 4-Methoxy-N-[5-(5-methoxy-2-trifluoromethyl-benzoimidazol-1-yl)-pyrazin-2-yl]-benzamide] to CCOc1ccc(C(=O)Nc2cnc(-n3c(C(F)(F)F)nc4cc(OC)ccc43)cn2)cc1 [Compound 133, 4-Ethoxy-N-[5-(5-methoxy-2-trifluoromethyl-benzoimidazol-1-yl)-pyrazin-2-yl]-benzamide], the IC50 rises from 295 nM to greater than 1000 nM. The first is the more potent here.

Going from CCc1ccc(C(=O)Nc2cnc(-n3c(C(F)(F)F)nc4cc(OC)ccc43)cn2)cc1 [Compound 106, 4-Ethyl-N-[5-(5-methoxy-2-trifluoromethyl-benzoimidazol-1-yl)-pyrazin-2-yl]-benzamide] to CCCc1ccc(C(=O)Nc2cnc(-n3c(C(F)(F)F)nc4cc(OC)ccc43)cn2)cc1 [Compound 109, N-[5-(5-Methoxy-2-trifluoromethyl-benzoimidazol-1-yl)-pyrazin-2-yl]-4-propyl-benzamide], the IC50 rises from 2 nM to 279 nM (140-fold). The first is the more potent here.

First: COc1ccc2c(c1)nc(C(F)(F)F)n2-c1cnc(NC(=O)c2cccc(C)c2[N+](=O)[O-])cn1 [Compound 142, N-[5-(5-Methoxy-2-trifluoromethyl-benzoimidazol-1-yl)-pyrazin-2-yl]-3-methyl-2-nitro-benzamide]
Second: COc1ccc2c(c1)nc(C(F)(F)F)n2-c1cnc(NC(=O)c2cccc(C)c2C)cn1 [Compound 92, N-[5-(5-Methoxy-2-trifluoromethyl-benzoimidazol-1-yl)-pyrazin-2-yl]-2,3-dimethyl-benzamide]
The IC50 of the first is 19-fold higher: 324 nM for the first, 17 nM for the second. The second is the more potent here.

First: COc1ccc2c(c1)nc(C(F)(F)F)n2-c1cnc(NC(=O)c2ccc(Br)cc2)cn1 [Compound 107, 4-Bromo-N-[5-(5-methoxy-2-trifluoromethyl-benzoimidazol-1-yl)-pyrazin-2-yl]-benzamide]
Second: COc1ccc2c(c1)nc(C(F)(F)F)n2-c1cnc(NC(=O)c2ccc(C#N)cc2)cn1 [Compound 93, 4-Cyano-N-[5-(5-methoxy-2-trifluoromethyl-benzoimidazol-1-yl)-pyrazin-2-yl]-benzamide]
The IC50 of the first is 10-fold lower: 18 nM for the first, 181 nM for the second. The first is the more potent here.

COc1ccc2c(c1)nc(C(F)(F)F)n2-c1cnc(NC(=O)c2cc(F)ccc2Cl)cn1 [Compound 151, 2-Chloro-5-fluoro-N-[5-(5-methoxy-2-trifluoromethyl-benzoimidazol-1-yl)-pyrazin-2-yl]-benzamide] and COc1ccc2c(c1)nc(C(F)(F)F)n2-c1cnc(NC(=O)c2ccc(F)cc2F)cn1 [Compound 7, 2,4-Difluoro-N-[5-(5-methoxy-2-trifluoromethyl-benzoimidazol-1-yl)-pyrazin-2-yl]-benzamide] are within 1.5-fold of each other in IC50: 27 nM for the first, 33 nM for the second.

Going from COc1ccc2c(c1)nc(C(F)(F)F)n2-c1cnc(NC(=O)c2cccc(OC)c2OC)cn1 [Compound 128, 2,3-Dimethoxy-N-[5-(5-methoxy-2-trifluoromethyl-benzoimidazol-1-yl)-pyrazin-2-yl]-benzamide] to COc1ccc(C(=O)Nc2cnc(-n3c(C(F)(F)F)nc4cc(OC)ccc43)cn2)c(OC)c1 [Compound 124, 2,4-Dimethoxy-N-[5-(5-methoxy-2-trifluoromethyl-benzoimidazol-1-yl)-pyrazin-2-yl]-benzamide], the IC50 rises from 187 nM to greater than 1000 nM.

Going from COc1ccc2c(c1)nc(C(F)(F)F)n2-c1cnc(NC(=O)c2ccc(C(C)(C)C)cc2)cn1 [Compound 132, 4-tert-Butyl-N-[5-(5-methoxy-2-trifluoromethyl-benzoimidazol-1-yl)-pyrazin-2-yl]-benzamide] to COc1ccc2c(c1)nc(C(F)(F)F)n2-c1cnc(NC(=O)c2ccc(C(F)(F)F)cc2)cn1 [Compound 137, N-[5-(5-Methoxy-2-trifluoromethyl-benzoimidazol-1-yl)-pyrazin-2-yl]-4-trifluoromethyl-benzamide], the IC50 falls from greater than 1000 nM to 714 nM. The second is the more potent here.

COc1ccc2c(c1)nc(C(F)(F)F)n2-c1cnc(NC(=O)c2ccc([N+](=O)[O-])cc2F)cn1 [Compound 150, 2-Fluoro-N-[5-(5-methoxy-2-trifluoromethyl-benzoimidazol-1-yl)-pyrazin-2-yl]-4-nitro-benzamide] and COc1ccc(C(=O)Nc2cnc(-n3c(C(F)(F)F)nc4cc(OC)ccc43)cn2)c(F)c1 [Compound 127, 2-Fluoro-4-methoxy-N-[5-(5-methoxy-2-trifluoromethyl-benzoimidazol-1-yl)-pyrazin-2-yl]-benzamide] are within 1.5-fold of each other in IC50: 126 nM for the first, 105 nM for the second.

First: COc1ccc2c(c1)nc(C(F)(F)F)n2-c1cnc(NCc2c(F)cccc2F)cn1 [Compound 37, (2,6-Difluoro-benzyl)-[5-(5-methoxy-2-trifluoromethyl-benzoimidazol-1-yl)-pyrazin-2-yl]-amine]
Second: COc1ccc2c(c1)nc(C(F)(F)F)n2-c1cnc(NCc2ccccc2C)cn1 [Compound 46, [5-(5-Methoxy-2-trifluoromethyl-benzoimidazol-1-yl)-pyrazin-2-yl]-(2-methyl-benzyl)-amine]
The IC50 of the first is lower: 103 nM for the first, greater than 1000 nM for the second. The first is the more potent here.

COc1cc(OC)cc(C(=O)Nc2cnc(-n3c(C(F)(F)F)nc4cc(OC)ccc43)cn2)c1 [Compound 129, 3,5-Dimethoxy-N-[5-(5-methoxy-2-trifluoromethyl-benzoimidazol-1-yl)-pyrazin-2-yl]-benzamide] and COc1ccc2c(c1)nc(C(F)(F)F)n2-c1cnc(NC(=O)c2cc(C)cc(C)c2)cn1 [Compound 121, N-[5-(5-Methoxy-2-trifluoromethyl-benzoimidazol-1-yl)-pyrazin-2-yl]-3,5-dimethyl-benzamide] cannot be ordered by IC50: greater than 1000 nM for the first, greater than 1000 nM for the second.

First: COc1ccc2c(c1)nc(C(F)(F)F)n2-c1cnc(NCc2ccncc2)cn1 [Compound 105, [5-(5-Methoxy-2-trifluoromethyl-benzoimidazol-1-yl)-pyrazin-2-yl]-pyridin-4-ylmethyl-amine]
Second: COc1ccc2c(c1)nc(C(F)(F)F)n2-c1cnc(NC(=O)c2ccncc2F)cn1 [Compound 3, 3-Fluoro-N-[5-(5-methoxy-2-trifluoromethyl-benzoimidazol-1-yl)-pyrazin-2-yl]-isonicotinamide]
The IC50 of the first is higher: greater than 1000 nM for the first, 79 nM for the second. The second is the more potent here.

Going from COc1ccc2c(c1)nc(C(F)(F)F)n2-c1cnc(NC(=O)c2ccc(SC)cc2)cn1 [Compound 119, N-[5-(5-Methoxy-2-trifluoromethyl-benzoimidazol-1-yl)-pyrazin-2-yl]-4-methylsulfanyl-benzamide] to COc1ccc2c(c1)nc(C(F)(F)F)n2-c1cnc(NC(=O)c2cccc(SC)c2)cn1 [Compound 95, N-[5-(5-Methoxy-2-trifluoromethyl-benzoimidazol-1-yl)-pyrazin-2-yl]-3-methylsulfanyl-benzamide], the IC50 rises from 50 nM to 489 nM (9.8-fold).

First: O=C(Nc1cnc(-n2c(C(F)(F)F)nc3cc(-c4ncco4)ccc32)cn1)c1c(F)cccc1F [Compound 153, 2,6-Difluoro-N-[5-(5-oxazol-2-yl-2-trifluoromethyl-benzoimidazol-1-yl)-pyrazin-2-yl]-benzamide]
Second: COc1ccc2c(c1)nc(C(F)(F)F)n2-c1cnc(NC(=O)c2cccc(I)c2)cn1 [Compound 112, 3-Iodo-N-[5-(5-methoxy-2-trifluoromethyl-benzoimidazol-1-yl)-pyrazin-2-yl]-benzamide]
The IC50 of the first is 12-fold lower: 15 nM for the first, 173 nM for the second. The first is the more potent here.

Compared with COc1ccc2c(c1)nc(C(F)(F)F)n2-c1cnc(NC(=O)c2ccc(C)c([N+](=O)[O-])c2)cn1 [Compound 140, N-[5-(5-Methoxy-2-trifluoromethyl-benzoimidazol-1-yl)-pyrazin-2-yl]-4-methyl-3-nitro-benzamide], COc1ccc2c(c1)nc(C(F)(F)F)n2-c1cnc(NC(=O)c2ccccc2Br)cn1 [Compound 85, 2-Bromo-N-[5-(5-methoxy-2-trifluoromethyl-benzoimidazol-1-yl)-pyrazin-2-yl]-benzamide] is 5.2-fold lower in IC50: 192 nM for the first, 37 nM for the second.
